Reference: PubChem BioAssay (NCI)
Where “and” joins values, the source holds several entries; their conditions need not be identical. Equal entries are not always repeated.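 In this assay, cells in 96-well plates receive the compound at five concentrations for 48 hours. Endpoints are linearly interpolated between the surrounding concentrations. GI50 = concentration required for 50% inhibition of growth. TGI denotes the concentration required for complete inhibition of growth.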

How the values were obtained:
Experiment in all cases: NCI tumour cell line growth inhibition, 48 h
[1] = tested on: HCT-15 colon
[2] = tested on: K-562 leukemia
[3] = tested on: NCI-H522 lung
[4] = tested on: OVCAR-3 ovarian
[5] = tested on: RPMI-8226 leukemia
[6] = tested on: SF-268 CNS
[7] = tested on: SK-MEL-28 melanoma
[8] = tested on: SNB-19 CNS
[9] = tested on: TK-10 renal
[10] = tested on: UACC-62 melanoma

SMILES | GI50 [1] | TGI [1] | GI50 [2] | TGI [2] | GI50 [3] | TGI [3] | GI50 [4] | TGI [4] | GI50 [5] | TGI [5] | GI50 [6] | TGI [6] | GI50 [7] | TGI [7] | GI50 [8] | TGI [8] | GI50 [9] | TGI [9] | GI50 [10] | TGI [10]
Cc1ccc(C(=O)Nc2ccccc2C(=O)N/N=C(\c2ccccc2)c2ccccn2)cc1 | 0.06 µM | > 100 µM | 0.855 µM | > 100 µM | 0.582 µM | > 100 µM | 0.211 µM | > 100 µM | 1.13 µM | > 100 µM | 0.274 µM | > 100 µM | 0.597 µM | > 100 µM | 0.554 µM | > 100 µM | 3.58 µM | > 100 µM | 0.36 µM | 6.7 µM
Clc1ccc2c(NCCN3CCN(c4ccnc(N5CCCC5)n4)CC3)ccnc2c1 | 2.1 µM | 7.57 µM | 1.47 µM | 9.76 µM | 3.27 µM | 11.1 µM | 5.3 µM | 21.2 µM | 2.48 µM | 7.08 µM | 2.73 µM | 11.5 µM | 1.77 µM | 3.66 µM | 7.06 µM | 28.7 µM | 3.9 µM | 21.3 µM | 2.13 µM | 4.51 µM
Cn1c(=O)c2[nH]cnc2n(CC(=O)O)c1=O | – | > 100 µM | – | > 100 µM | – | > 100 µM | – | > 100 µM | – | > 100 µM | – | > 100 µM | – | > 100 µM | – | > 100 µM | – | > 100 µM | – | > 100 µM
COc1cc2c(cc1-c1c(C)noc1C)ncc1[nH]c(=O)n([C@H](C)c3ccccn3)c12 | 0.807 µM | > 100 µM | 0.75 µM | > 100 µM | 0.0975 µM | 7.07 µM | 1.05 µM | > 47.9 µM | 0.124 µM | 3.54 µM | 11.7 µM | > 100 µM | 0.695 µM | > 90.7 µM | 1.16 µM | > 100 µM | 0.257 µM | 22 µM | 0.145 µM | > 87.2 µM
COc1ccc(Cn2c3c(c4c(O)cccc42)C(=O)c2ccccc2-3)cc1 | 16.1 µM | 89.8 µM | 24.3 µM | > 100 µM | 12.3 µM | 93.1 µM | 14.3 µM | 28.7 µM | 11.8 µM | 33.9 µM | 8.75 µM | 29.1 µM | 11.6 µM | 25 µM | 6.05 µM | 23.4 µM | 4.36 µM | 18.3 µM | 14.5 µM | 30.1 µM
c1ccc([P+](CCC[P+](c2ccccc2)(c2ccccc2)c2ccccc2)(c2ccccc2)c2ccccc2)cc1 | > 100 µM | > 100 µM | 4.53 µM | > 100 µM | 3.53 µM | > 100 µM and 24.8 µM | 4.41 µM | 83.7 µM and 35.5 µM | 1.27 µM | > 100 µM and 10.1 µM | 7.71 µM | > 100 µM | 11.2 µM | > 100 µM | 8.95 µM | > 100 µM | – | > 100 µM | – | > 100 µM
C[C@@H]1CCC2[C@@H](C)[C@H](OC(=O)CCC(=O)NCCNC(=O)Cc3cc(=O)oc4cc(N(C)C)ccc34)O[C@@H]3O[C@]4(C)CC[C@@H]1C23OO4 (stereo partly drawn) | 0.318 µM | 21 µM | 0.348 µM | 13.8 µM | 0.731 µM | 11.1 µM | 0.629 µM | 18.1 µM | 0.378 µM | 32.9 µM | 5.25 µM | > 65.2 µM | 17.4 µM | > 100 µM | 10.7 µM | > 100 µM | 3.24 µM | 18.6 µM | 0.711 µM | > 91 µM
O=C1C(Cl)=C(Nc2ccc3c(c2NC2=C(Cl)C(=O)c4ccccc4C2=O)C(=O)c2ccccc2C3=O)C(=O)c2ccccc21 | 1.62 µM | 4.19 µM | 2.75 µM | 7.81 µM | 2.48 µM | 8.7 µM | 1.78 µM | 7.03 µM | 1.66 µM | 9.37 µM | 2.91 µM | 12.9 µM | 2.87 µM | 8.61 µM | 2.74 µM | 10.3 µM | 7.26 µM | 22.2 µM | 1.3 µM | 2.9 µM
O=C(Nn1c2c(sc1=NC1CC1)C(=O)c1ccccc1C2=O)c1cc2ccc1CCc1ccc(cc1)CC2 | 1.51 µM | 3.24 µM | 2.43 µM | > 100 µM | 1.6 µM | 4.69 µM | 1.53 µM | 4.42 µM | 1.86 µM | 6.47 µM | 2.54 µM | 11 µM | 2.4 µM | 5.22 µM | 3.09 µM | 11.7 µM | 18.4 µM | 34.7 µM | 1.62 µM | 3.52 µM
Cc1[nH]ccc2cc3nc4ccccc4c3cc12 | 1.84 µM | 5.9 µM | 2.8 µM | 10.4 µM | 2.22 µM | 9.72 µM | 3.04 µM | 10.7 µM | 1.53 µM | 3.87 µM | 2.97 µM | 14.2 µM | 10.7 µM | 23.9 µM | 5.65 µM | 19.6 µM | 4.47 µM | 12.9 µM | 3.52 µM | 12.3 µM
